Results as given in patent US8318928B2, “Fused imidazole carboxamides as TRPV3 modulators” (Glenmark Pharmaceuticals, S.A., priority 2008, dated 2012).

Target: T1, Human TRPV3 expressing CHO cells (Homo sapiens, UniProt Q8NET8)
T1 construct: expressed in transfected cells; host or cells: CHO cells, kept under G-418 selection
T1 sequence (Q8NET8 1-790): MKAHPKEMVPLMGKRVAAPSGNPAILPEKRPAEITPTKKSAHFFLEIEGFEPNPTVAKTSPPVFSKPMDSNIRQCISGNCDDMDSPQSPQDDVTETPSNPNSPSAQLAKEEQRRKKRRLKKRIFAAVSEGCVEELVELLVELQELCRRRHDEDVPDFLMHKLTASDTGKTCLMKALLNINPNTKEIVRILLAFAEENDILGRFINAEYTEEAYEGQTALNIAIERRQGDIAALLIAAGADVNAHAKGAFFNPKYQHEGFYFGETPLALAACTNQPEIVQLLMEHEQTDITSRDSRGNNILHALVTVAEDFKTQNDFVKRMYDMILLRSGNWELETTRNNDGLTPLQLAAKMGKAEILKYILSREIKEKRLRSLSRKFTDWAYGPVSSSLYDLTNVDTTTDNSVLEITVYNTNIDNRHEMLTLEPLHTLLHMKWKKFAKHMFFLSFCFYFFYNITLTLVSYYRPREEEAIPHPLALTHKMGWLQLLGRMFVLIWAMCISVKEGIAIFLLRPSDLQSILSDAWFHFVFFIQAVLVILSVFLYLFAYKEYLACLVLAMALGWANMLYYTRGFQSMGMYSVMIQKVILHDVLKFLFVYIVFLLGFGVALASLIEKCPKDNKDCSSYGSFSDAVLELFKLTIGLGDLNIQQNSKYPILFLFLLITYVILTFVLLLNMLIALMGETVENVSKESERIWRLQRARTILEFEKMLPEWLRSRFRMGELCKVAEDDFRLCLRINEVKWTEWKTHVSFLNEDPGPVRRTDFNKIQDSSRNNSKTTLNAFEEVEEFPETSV
Experiment: 45Calcium uptake assay: inhibition of 2-APB induced cellular uptake of radioactive calcium
Format: cell-based
Details: 2-APB 500 μM; for inhibition at 1 µM / Percentage inhibition at 1.0 μM: compound at 1.0 μM; for inhibition at 1 µM: read-out: Percentage inhibition at 1.0 μM; for inhibition at 10 µM / Percentage inhibition at 10.0 μM: compound at 10.0 μM; for inhibition at 10 µM: read-out: Percentage inhibition at 10.0 μM; for IC50: class symbols
Text: Certain illustrative compounds within the scope of the present invention are screened for TRPV3 activity according to a modified procedure described in (a) Tóth, A. et al. Life Sciences 2003, 73, 487-498. (b) McNamara C, R. et al. Proc. Natl. Acad. Sci. U.S.A., 2007, 104, 13525-13530. The screening of the compounds may be carried out by other methods and procedures known to persons skilled in the art.
Screening for TRPV3 Antagonist Using the ^45Calcium Uptake Assay
The inhibition of TRPV3 receptor activation was followed as inhibition of 2-aminoethxydiphenylborate (2-APB) induced cellular uptake of radioactive calcium. Test compounds were dissolved in dimethyl sulfoxide (DMSO) to prepare 20 mM stock solution and then diluted using plain medium with DMEM/F-12 containing 1.8 mM CaCl2 to get desired concentration. Final concentration of DMSO in the reaction was 0.5% (v/v). Human TRPV3 expressing CHO cells were grown in DMEM/F-12 medium with 10% FBS, 1% penicillin-streptomycin solution, 400 μg/mL of G-418. Cells were seeded 24 h prior to the assay in 96 well plates so as to get ˜50,000 cells per well on the day of experiment. Cells were treated with test compounds for 10 minutes followed by addition of 2-APB at a final concentration of 500 μM and 5 μCi/mL ^45Ca^+2 for 4 minutes. Cells were washed and lysed using buffer containing 1% Triton X-100, 0.1% deoxycholate and 0.1% SDS. Radioactivity in the lysate was measured in Packardt Top count after addition of liquid scintillant. Concentration response curves were plotted as a % of maximal response obtained in the absence of test antagonist. IC50 value was calculated from concentration response curve by nonlinear regression analysis using GraphPad PRISM software.
Percentage inhibition at concentrations of 1.0 μM and 10.0 μM are given in the table along with IC50 (nM) details for selected examples.

| Compound | inhibition at 1 µM [%] | inhibition at 10 µM [%] | Percentage inhibition at 1.0 μM [%] | Percentage inhibition at 10.0 μM [%] | IC50 [nM] |
| --- | --- | --- | --- | --- | --- |
| COc1cccc(/C=C/c2nc3sccn3c2C(=O)Nc2nnc(C(F)(F)F)s2)c1OCC(C)(C)C [Example 12, 6-{(E)-2-[2-(2,2-Dimethylpropoxy)-3-methoxyphenyl]vinyl}-N-[5-(trifluoromethyl)-1,3,4-thiadiazol-2-yl]imidazo[2,1-b][1,3]thiazole-5-carboxamide] | 13.3 | 82.8 |  |  |  |
| CC(C)(C)COc1c(/C=C/c2nc3ccccn3c2C(=O)Nc2nc(C3CCC3)cs2)cccc1OC(F)F [Example 40, N-(4-Cyclobutyl-1,3-thiazol-2-yl)-2-{(E)-2-[3-(difluoromethoxy)-2-(2,2-dimethyl-propoxy)phenyl]vinyl}imidazo[1,2-c]pyridine-3-carboxamide] |  |  | 56.41 | 72.35 |  |
| CC(C)CCOc1c(/C=C/c2nc3sccn3c2C(=O)Nc2nc(C(F)(F)F)cs2)cccc1OC(F)F [Example 32, 6-{(E)-2-[3-(Difluoromethoxy)-2-[3-methylbutoxy)phenyl]vinyl}-N-[4-(trifluoromethyl)-1,3-thiazol-2-yl]imidazo[2,1-b][1,3]thiazole-5-carboxamide] | 63.7 | 96.6 |  |  |  |
| O=C(Nc1nc(C(F)(F)F)cs1)c1c(/C=C/c2cccc(OC(F)F)c2OC2CCCC2)nc2sccn12 [Example 17, 6-{(E)-2-[2-Cyclopentyloxy-3-(difluoromethoxy)phenyl]vinyl}-N-[4-(trifluoromethyl)-1,3-thiazol-2-yl]imidazo[2,1-b][1,3]thiazole-5-carboxamide] | 85.3 | 94.6 |  |  | 250 to 1000 |
| CC(C)(C)COc1c(/C=C/c2nc3sccn3c2C(=O)Nc2cccc(C(F)(F)F)c2)cccc1OC(F)F [Example 24, 6-{(E)-2-[3-(Difluoromethoxy)-2-(2,2-dimethylpropoxy)phenyl]vinyl}-N-(3-trifluoromethylphenyl)imidazo[2,1-b][1,3]thiazole-5-carboxamide] | 22.5 | 37.3 |  |  |  |
| COc1cccc(/C=C/c2nc3sccn3c2C(=O)Nc2nc(C(F)(F)F)co2)c1OCC(C)(C)C [Example 13, 6-{[(E)-2-(2,2-Dimethylpropoxy)-3-methoxyphenyl]vinyl}-N-[4-(trifluoromethyl)-1,3-oxazol-2-yl]imidazo[2,1-b][1,3]thiazole-5-carboxamide] |  |  | 10.75 | 31.51 |  |
| O=C(Nc1nc(C2CC2)cs1)c1c(/C=C/c2cccc(OC(F)F)c2OCC2CCC2)nc2sccn12 [Example 35, 6-{(E)-2-[2-(Cyclobutylmethoxy)-3-(difluoromethoxy)phenyl]vinyl}-N-(4-cyclopropyl-1,3-thiazol-2-yl)imidazo[2,1-b][1,3]thiazole-5-carboxamide] | 84.3 | 96.5 |  |  | < 100 |
| CC(C)(C)COc1c(/C=C/c2nc3sccn3c2C(=O)Nc2nc3c(s2)CCC3)cccc1OC(F)F [Example 28, 6-{(E)-2-[2-(2,2-Dimethylpropoxy)-3-(difluoromethoxy)phenyl]vinyl}-N-(5,6-dihydro-4H-cyclopenta[d][1,3]thiazol-2-yl)imidazo[2,1-b][1,3]thiazole-5-carboxamide] | 9.45 | 15.6 |  |  |  |
| COc1cccc(/C=C/c2nc3sccn3c2C(=O)Nc2nc(C(C)(C)C)cs2)c1OCC(C)(C)C [Example 8, 6-{(E)-2-[2-(2,2-Dimethylpropoxy)-3-methoxyphenyl]vinyl}-N-[4-(tert-butyl)-1,3-thiazol-2-yl]imidazo[2,1-b][1,3]thiazole-5-carboxamide] | 88.1 | 91.1 |  |  | < 100 |
| COc1cccc(/C=C/c2nc3sccn3c2C(=O)N2CCN(c3ccc(C(F)(F)F)cn3)CC2)c1OCC1CC1 [Example 4, 6-[(E)-2-(2-Cyclopropylmethoxy-3-methoxyphenyl)vinyl]imidazo[2,1-b][1,3]thiazol-5-yl-4-(5-trifluoromethyl-2-pyridyl)piperazinomethanone] | 36.2 | 91.7 |  |  |  |
| COc1cccc(/C=C/c2nc3sccn3c2C(=O)N2CCCc3ccccc32)c1OCC1CC1 [Example 3, 1-({6-[(E)-2-(2-Cyclopropylmethoxy-3-methoxyphenyl)vinyl]imidazo[2,1-b][1,3]thiazol-5-yl}carbonyl)-1,2,3,4-tetrahydroquinoline] | 34.6 | 90.6 |  |  |  |
| COc1cccc(/C=C/c2nc3sccn3c2C(=O)N2CCN(c3ccc(C#N)cn3)CC2)c1OCC1CC1 [Example 5] | 5.32 | 38.2 |  |  |  |
| CC(C)(C)COc1c(/C=C/c2nc3sccn3c2C(=O)Nc2ncc(C(F)(F)F)cc2Cl)cccc1OC(F)F [Example 27, N-[3-Chloro-5-(trifluoromethyl)pyridin-2-yl]-6-{(E)-2-[3-(difluoromethoxy)-2-(2,2-dimethylpropoxy)phenyl]vinyl}imidazo[2,1-b][1,3]thiazole-5-carboxamide] | 25.7 | 33.9 |  |  |  |
| CC(C)(C)COc1c(/C=C/c2nc3sccn3c2C(=O)Nc2nc(C3CC3)cs2)cccc1OC(F)F [Example 23, 6-{(E)-2-[2-(2,2-Dimethylpropoxy)-3-(difluoromethoxy)phenyl]vinyl}-N-(4-cyclo-propyl-1,3-thiazol-2-yl)imidazo[2,1-b][1,3]thiazole-5-carboxamide] | 93.2 | 90 |  |  | < 100 |
| CC(C)(C)COc1c(/C=C/c2nc3sccn3c2C(=O)Nc2nc(C(C)(C)C)cs2)cccc1OC(F)F [Example 21, 6-[(E)-2-(3-(Difluoromethoxy)-2-(2,2-dimethylpropoxy)-phenyl)vinyl]-N-(4-tert-butyl-1,3-thiazol-2-yl)imidazo[2,1-b][1,3]thiazole-5-carboxamide] | 80.8 | 89.8 |  |  | 100 to 250 |
| CC(C)(C)COc1c(/C=C/c2nc3sccn3c2C(=O)NCc2cccc(C(F)(F)F)c2)cccc1OC(F)F [Example 25, 6-{(E)-2-[3-(Difluoromethoxy)-2-(2,2-dimethylpropoxy)phenyl]vinyl}-N-(3-trifluoromethylbenzyl)imidazo[2,1-b][1,3]thiazole-5-carboxamide] | 0 | 18.2 |  |  |  |
| COc1cccc(/C=C/c2nc3sccn3c2C(=O)Nc2nc(C)cs2)c1OCC(C)(C)C [Example 10, 6-{(E)-2-[2-(2,2-Dimethylpropoxy)-3-methoxyphenyl]vinyl}-N-(4-methyl-1,3-thiazol-2-yl)imidazo[2,1-b][1,3]thiazole-5-carboxamide] | 69.3 | 80.6 |  |  | 250 to 1000 |
| CCCCCOc1c(/C=C/c2nc3sccn3c2C(=O)Nc2nc(C(F)(F)F)cs2)cccc1OC(F)F [Example 33] | 51.8 | 93.1 |  |  |  |
| CC(C)(C)COc1c(/C=C/c2nc3ccccn3c2C(=O)Nc2nc(C3CC3)cs2)cccc1OC(F)F [Example 39, 2-{(E)-2-[2-(2,2-Dimethylpropoxy)-3-(difluoromethoxy)phenyl]vinyl}-N-(4-cyclo-propyl-1,3-thiazol-2-yl)imidazo[1,2-a]pyridine-3-carboxamide] | 76.1 | 58.7 |  |  |  |
